Laboratory results reported in patent US20260130936A1, “COMPOSITIONS COMPRISING AN ACTIVE INGREDIENT MIXTURE COMPRISING SILICON AND BIOTIN AND METHODS OF USE” (Nutrition21, LLC, priority 2022, published 2026).

Legend:
hair and nail growth = test: Hair density, anagen ratio, telogen ratio, nail growth and molecular analysis in rats (Example 4); assay type: in vivo, Sprague-Dawley rats
Procedure: Twenty-eight female Sprague-Dawley rats (8 weeks old) were randomized into one of the following groups: (i) group (control), shaved; (ii) group (ASI), shaved+ASI (4.14 mg/rat/day); (iii) group (ASI+MgB I), shaved+ASI (4.14 mg/rat/day)+MgB (48.7 μg/rat/day); and (iv) group (ASI+MgB II), shaved+ASI (4.14 mg/rat/day)+MgB (325 μg/rat/day). On day 42, compared with the control group, while hair density (p<0.05, p<0.01, and p<0.0001, respectively) and anagen ratio (p<0.01, p<0.01, and p<0.001) increased in the ASI, ASI+MgB I, and ASI+MgB II groups, telogen ratio decreased (p<0.01, p<0.01, and p<0.001, respectively). In the molecular analysis, VEGF, HGF, and KGF-2 increased in the ASI (p<0.01, p<0.01, and p<0.05, respectively), ASI+MgB I (p<0.0001 for all), and ASI+MgB II (p<0.0001 for all) groups when compared to the control group. […] SIRT-1 and β-catenin increased in the ASI (p<0.05 and p<0.01), ASI+MgB I (p<0.001 for both), and ASI+MgB II (p<0.0001 for both) groups. Wnt-1 increased in the ASI+MgB I (p<0.001) and ASI+MgB II (p<0.0001) groups.

Water solubility = assay type: physicochemical; conditions: greater than biotin
[1] = preclinical models; compared to D-biotin; cited from earlier work
[2] = day 42, compared with the control group

inositol-stabilized arginine silicate complex [ASI]
anagen ratio (hair and nail growth; [2]): increased | hair density (hair and nail growth; [2]): increased | telogen ratio (hair and nail growth; [2]): decreased | SIRT-1 and β-catenin (hair and nail growth; molecular analysis): increased | VEGF, HGF, and KGF-2 (hair and nail growth; molecular analysis, compared to the control group): increased | nail growth (hair and nail growth; rats): did not affect nail growth

magnesium biotinate
water solubility relative to biotin (Water solubility): about 40 times | absorption and uptake in tissue [1]: superior absorption and greater uptake in tissue
